Experimental data: patent US20260083865A1, “PROSTATE SPECIFIC MEMBRANE ANTIGEN (PSMA) LIGANDS AND USE THEREOF” (priority 2022, published 2026)
Where two headings read alike, the source gives them in different places. Bridge positions count the residues as written; N and C are the ends. Square brackets hold non-standard residues; d marks the D form. Peptide text beside a SMILES is read from it. * marks the point of attachment. ξ: configuration not given here. Acetyl(1-DOTA-4-piperidyl) = O=C(O)CN1CCN(CC(=O)O)CCN(CC(=O)N2CCC(CC(=O)*)CC2)CCN(CC(=O)O)CC1; Phe(4-Cl) = N[C@@H](Cc1ccc(Cl)cc1)C(=O)O; Phe(3-Me) = Cc1cccc(C[C@H](N)C(=O)O)c1; Tle = CC(C)(C)[C@H](N)C(=O)O; NHCH2tBu = CC(C)(C)CN*; ξD = NC(CC(=O)O)C(=O)O; Aib = CC(C)(N)C(=O)O

Key:
[1] = biological target: T1, Fc-fusion protein of human PSMA (hPSMA-Fc) (Homo sapiens, UniProt Q04609); assay: Surface plasmon resonance assay (Biacore T200, single cycle kinetic); format: binding; conditions: hPSMA-Fc, 25° C., read-out: pKD CAT (converted)
T1 construct: purchased Acro Biosystems PSA-H5264
T1 sequence (Q04609 44-750 limits assumed): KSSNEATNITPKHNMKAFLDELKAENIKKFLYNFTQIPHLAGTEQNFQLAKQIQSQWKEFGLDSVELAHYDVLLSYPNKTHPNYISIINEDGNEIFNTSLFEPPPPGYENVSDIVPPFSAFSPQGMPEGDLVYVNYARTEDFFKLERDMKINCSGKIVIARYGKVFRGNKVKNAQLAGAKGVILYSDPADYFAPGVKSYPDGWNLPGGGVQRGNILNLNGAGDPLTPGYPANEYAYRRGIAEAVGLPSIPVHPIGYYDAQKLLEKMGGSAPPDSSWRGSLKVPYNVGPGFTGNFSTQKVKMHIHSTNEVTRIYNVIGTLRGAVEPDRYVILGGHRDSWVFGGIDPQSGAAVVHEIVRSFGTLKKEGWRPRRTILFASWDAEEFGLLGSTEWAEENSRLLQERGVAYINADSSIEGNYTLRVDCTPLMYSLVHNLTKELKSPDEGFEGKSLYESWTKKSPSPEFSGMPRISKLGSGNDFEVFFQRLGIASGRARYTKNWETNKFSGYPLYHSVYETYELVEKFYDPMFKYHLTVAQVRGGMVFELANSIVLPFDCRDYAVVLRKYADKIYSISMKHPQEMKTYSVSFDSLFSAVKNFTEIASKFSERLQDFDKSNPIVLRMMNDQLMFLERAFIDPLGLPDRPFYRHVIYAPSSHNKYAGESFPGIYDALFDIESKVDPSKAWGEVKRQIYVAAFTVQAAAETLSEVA
In short: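 hPSMA-Fc was captured (~1000 RU) on an Fc-binding-peptide CM5 chip, and compounds were run in single cycle kinetic mode at 25° C in HBST with 0.1% DMSO. Double-blank-corrected sensorgrams were fitted to a 1:1 Langmuir model to give KD, reported as pKD.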

[2] = biological target: T2, PSMA-expressing C4-2 cells (Homo sapiens, UniProt Q04609); assay: FACS binding assay (competition with 50 nM PSM-0183); conditions: read-out: pIC50 [C4-2] CAT (converted)
T2 construct: PSMA-expressing C4-2 cells (ATCC, Cat. No. CRL-3314) were cultured in RPMI-1640; host or cells: C4-2 cells
T2 sequence (Q04609 whole entry): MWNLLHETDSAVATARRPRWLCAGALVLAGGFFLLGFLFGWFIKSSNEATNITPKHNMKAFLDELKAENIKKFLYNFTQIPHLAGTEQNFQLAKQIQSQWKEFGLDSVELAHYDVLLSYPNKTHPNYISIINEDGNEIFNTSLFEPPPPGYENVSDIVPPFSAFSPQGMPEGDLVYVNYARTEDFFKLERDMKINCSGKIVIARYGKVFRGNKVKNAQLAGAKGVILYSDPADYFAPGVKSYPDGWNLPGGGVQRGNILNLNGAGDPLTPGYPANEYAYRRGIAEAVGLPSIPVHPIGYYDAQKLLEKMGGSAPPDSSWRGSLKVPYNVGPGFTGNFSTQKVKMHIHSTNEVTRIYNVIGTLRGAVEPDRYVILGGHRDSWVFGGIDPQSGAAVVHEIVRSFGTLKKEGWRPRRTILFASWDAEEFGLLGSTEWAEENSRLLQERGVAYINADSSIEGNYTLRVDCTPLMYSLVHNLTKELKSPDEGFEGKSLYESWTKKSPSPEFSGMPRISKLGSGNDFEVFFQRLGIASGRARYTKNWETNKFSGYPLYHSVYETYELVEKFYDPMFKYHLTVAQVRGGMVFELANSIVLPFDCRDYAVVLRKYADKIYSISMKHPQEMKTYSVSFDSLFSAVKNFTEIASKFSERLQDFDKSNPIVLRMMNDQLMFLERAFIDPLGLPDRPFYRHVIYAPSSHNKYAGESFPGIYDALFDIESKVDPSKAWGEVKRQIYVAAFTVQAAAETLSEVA
In short: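 C4-2 cells were incubated 1 h at 4 °C with 50 nM AF488-labelled peptide PSM-0183 plus increasing test compound concentrations, then washed twice in ice-cold buffer. Median fluorescence in the AF488 channel was read by flow cytometry. IC50/pIC50 was derived by 4PL fitting of MFI versus concentration.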

[3] = SPR, single cycle kinetic, category
[4] = FACS binding, C4-2 cells, competition with 50 nM PSM-0183, category
[5] = pKD category for PSMA SPR activity assay
[6] = pIC50 category of FACS binding, C4-2 cells
[7] = FACS binding, PSMA-expressing C4-2 cells, pIC50 category

Kd [1, 5] [nM]	IC50 [2, 6] [nM]	Compound	also measured
> 501	> 3160	CCCC[C@H](NC(=O)[C@@H]1CSSC[C@H](NC(=O)[C@H](Cc2ccccc2)NC(=O)[C@H](C)NC(=O)[C@H](NC(C)=O)[C@H](C)O)C(=O)N[C@@H](CCCCN)C(=O)N[C@@H](CCCNC(=N)N)C(=O)N[C@@H](C)C(=O)N[C@@H](CC(N)=O)C(=O)N1)C(=O)N[C@H](C(=O)N[C@@H](CC(=O)O)C(N)=O)[C@@H](C)O [PSM-0525, Ac-thr-Als-Phe-[Cys-Lys-Arg-Als-Asn-Cys]-Nle-Thr-Asp-NH2]	–
< 12.6	< 200	CC(=O)N[C@H](C(=O)NC(C)(C)C(=O)N[C@@H](Cc1ccccc1)C(=O)N[C@H]1CSSC[C@@H](C(=O)N[C@H](C(=O)N[C@@H](CC(C)C)C(N)=O)C(C)(C)C)NC(=O)[C@H](CC(N)=O)NC(=O)C(C)(C)NC(=O)[C@H](CCCNC(=N)N)NC(=O)[C@H](CCCCN)NC1=O)[C@@H](C)O [PSM-0453, Ac-Thr-Aib-Phe-[Cys-Lys-Arg-Aib-Asn-Cys]-Tle-Leu-NH2] (Ac-T[Aib]FCKR[Aib]NC[Tle]L-NH2; disulfide 4-9)	–
< 12.6	< 200	CC(=O)N[C@H](C(=O)NC(C)(C)C(=O)N[C@@H](Cc1cccc(C)c1)C(=O)N[C@H]1CSSC[C@@H](C(=O)N[C@H](C(=O)N[C@H](C(N)=O)[C@@H](C)O)C(C)(C)C)NC(=O)[C@H](CC(N)=O)NC(=O)C(C)(C)NC(=O)[C@H](CCCNC(=N)N)NC(=O)[C@H](CCCCN)NC1=O)[C@@H](C)O [PSM-0412, Ac-Thr-Aib-Mmf-[Cys-Lys-Arg-Aib-Asn-Cys]-Tle-Thr-NH2] (Ac-T[Aib][Phe(3-Me)]CKR[Aib]NC[Tle]T-NH2; disulfide 4-9)	–

Further lines, the compound ahead of its results:

Compound	Kd [1, 5] [nM]	IC50 [2, 6] [nM]	also measured
CC(=O)N[C@H](C(=O)NC(C)(C)C(=O)N[C@@H](Cc1ccc(Cl)cc1)C(=O)N[C@H]1CSSC[C@@H](C(=O)N[C@H](C(=O)N[C@H](C(=O)N[C@H](CCCCNC(=O)CC2CCN(C(=O)CN3CCN(CC(=O)O)CCN(CC(=O)O)CCN(CC(=O)O)CC3)CC2)C(N)=O)[C@@H](C)O)C(C)(C)C)NC(=O)[C@H](CC(N)=O)NC(=O)C(C)(C)NC(=O)[C@H](CCCNC(=N)N)NC(=O)[C@H](CCCCN)NC1=O)[C@@H](C)O [PSM-0190, Ac-Thr-Aib-Pcf-[Cys-Lys-Arg-Aib-Asn-Cys]-Tle-Thr-lys(DOTA-Cmp)-NH2] (Ac-T[Aib][Phe(4-Cl)]CKR[Aib]NC[Tle]T[dK](Acetyl(1-DOTA-4-piperidyl))-NH2; disulfide 4-9)	–	–	Kd [1, 3]: < 12.6 nM; IC50 [2, 4]: < 200 nM
CSCC[C@H](N)C(=O)N[C@H](C(=O)N[C@@H](C)C(=O)N[C@@H](Cc1ccccc1)C(=O)N[C@H]1CSSC[C@@H](C(=O)N[C@@H](CC(C)C)C(=O)N[C@H](C(=O)NC(CC(=O)O)C(=O)NCC(=O)N[C@@H](CO)C(N)=O)[C@@H](C)O)NC(=O)[C@H](CC(N)=O)NC(=O)[C@H](C)NC(=O)[C@H](CCCNC(=N)N)NC(=O)[C@H](CCCCN)NC1=O)[C@@H](C)O (stereo partly drawn) [PSM-0498, H-Met-Thr-Ala-Phe-[Cys-Lys-Arg-Ala-Asn-Cys]-Lou-Thr-Asp-Gly-Ser-NH2] (H-MTAFCKRANCLT[ξD]GS-NH2; disulfide 5-10)	< 12.6	< 200	–
CC(=O)N[C@H](C(=O)NC(C)(C)C(=O)N[C@@H](Cc1ccccc1)C(=O)N[C@H]1CSSC[C@H](C(=O)N[C@H](C(=O)N[C@H](C(N)=O)[C@@H](C)O)C(C)(C)C)NC(=O)[C@H](CC(N)=O)NC(=O)C(C)(C)NC(=O)[C@H](CCCNC(=N)N)NC(=O)[C@H](CCCCN)NC1=O)[C@@H](C)O [PSM-0331, Ac-Thr-Aib-Phe-[Cys-Lys-Arg-Aib-Asn-cys]-Tle-Thr-NH2] (Ac-T[Aib]FCKR[Aib]N[dC][Tle]T-NH2; disulfide 4-9)	–	–	Kd ([1]; PSMA SPR assay, pKD category): > 501 nM; IC50 [2, 7]: 200 to 1260 nM
CC(=O)N[C@H](C(=O)NC(C)(C)C(=O)N[C@@H](Cc1ccccc1)C(=O)N[C@H]1CSSC[C@@H](C(=O)NCC(C)(C)C)NC(=O)[C@H](CC(N)=O)NC(=O)C(C)(C)NC(=O)[C@H](CCCNC(=N)N)NC(=O)[C@H](CCCCN)NC1=O)[C@@H](C)O [PSM-0208, Ac-Thr-Aib-Phe-[Cys-Lys-Arg-Aib-Asn-Cys]-NHnPen] (Ac-T[Aib]FCKR[Aib]NC-NHCH2tBu; disulfide 4-9)	–	–	Kd [1, 3]: 126 to 501 nM; IC50 [2, 4]: 200 to 1260 nM
CC(=O)N[C@H](C(=O)NC(C)(C)C(=O)N[C@@H](Cc1ccccc1)C(=O)N[C@H]1CSSC[C@@H](C(=O)N[C@H](C(=O)N[C@H](C(=O)N[C@@H](CC(=O)O)C(N)=O)[C@@H](C)O)C(C)(C)C)NC(=O)[C@H](CC(N)=O)NC(=O)C(C)(C)NC(=O)[C@H](CCC(N)=O)NC(=O)[C@H](CCCCN)NC1=O)[C@@H](C)O [PSM-0334, Ac-Thr-Aib-Phe-[Cys-Lys-Gln-Aib-Asn-Cys]-Tle-Thr-Asp-NH2] (Ac-T[Aib]FCKQ[Aib]NC[Tle]TD-NH2; disulfide 4-9)	–	–	Kd ([1]; PSMA SPR assay, pKD category): 12.6 to 126 nM; IC50 [2, 7]: < 200 nM
